SMILES strings stand for the structures.

The subject of this test is insulin-positive and insulin-negative pancreatic tumors. Type of test: in vivo. Conditions: [^68Ga]DOTATOC PET/CT, scan 30 min after injection.

Description: PET scans were performed after 30 min of injection of the labeled substance via tail vein (10 MBq/mouse) under 2.0% isoflurane anesthesia using a Triumph LabPET12/SPECT4/CT (TriFoil Imaging Inc., Chatsworth, CA, USA)[41].
After completion of the PET/CT procedures, mice were sacrificed by cervical dislocation, followed by immediate resection of the pancreas. Tissues were spread on filter paper and immediately fixed in 10% formalin at 4 °C. For the analysis of pancreatic tumors, serial formalin-fixed paraffin-embedded sections (4-μm thickness) were stained with anti-insulin and anti-glucagon antibody, as previously reported[39]. Briefly, primary rabbit polyclonal antibody was used for insulin detection at an antibody dilution of 1:100 (Cat# sc-9168; Santa Cruz Biotechnology, USA) and a mouse monoclonal antibody glucagon detection at an antibody dilution of 1:100 (Cat# ab10988; Abcam, USA). The secondary antibodies utilized for the assay were Alexa Fluor 488 goat anti-rabbit antibody at 1:200 dilution (Cat# A-11008; Thermo Fisher Scientific, USA) and Alexa Fluor 546 goat anti-mouse antibody at 1:200 dilution (Cat# A-11030; Thermo Fisher Scientific, USA), respectively. The slides were prepared for analyses under a fluorescence microscope (BZ-X700; Keyence, Osaka, Japan).

`C[C@@H](O)[C@@H]1NC(=O)[C@H](CCCCN)NC(=O)[C@@H](Cc2c[nH]c3ccccc23)NC(=O)[C@H](Cc2ccc(O)cc2)NC(=O)[C@@H](NC(=O)[C@@H](Cc2ccccc2)NC(=O)CN2CCN(CC(=O)[O-])CCN(CC(=O)[O-])CCN(CC(=O)[O-])CC2)CSSC[C@@H](C(=O)N[C@H](CO)[C@@H](C)O)NC1=O.[68Ga+3]` [[^68Ga]DOTATOC, ^68Ga-labeled 1,4,7,10-tetraazacyclododecane-N,N′,N″,N″-tetraacetic acid-d-Phe^1-Tyr^3-octreotide]: the “Specificity for detecting insulin-positive tumors” value is listed as 0%.
